Experimental data reported in US20260035359A1, “HERBICIDAL IMIDAZOLE COMPOUNDS” (SYNGENTA CROP PROTECTION AG, priority 2022, published 2026).

How the values were obtained:
Format in all cases: in vivo
[1] = tested on: Echinochloa crus-gali (ECHCG); test: Pre-emergence herbicidal glasshouse test; details: 250 g/ha, sprayed after one day cultivation, evaluated after 13 days
Method in brief: (§1)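 Pots of standard soil were sown and sprayed 1 day (pre-emergence) or 8 days (post-emergence) after sowing with compound at 250 g/ha unless otherwise stated, in acetone/water (50:50) with 0.5% Tween 20. Glasshouse at 24/16° C day/night, 14 h light, 65% humidity; percentage damage scored after 13 days on a five-point scale.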

[2] = tested on: Amaranthus retoflexus (AMARE); test: Pre-emergence herbicidal glasshouse test; details: 250 g/ha, sprayed after one day cultivation, evaluated after 13 days
Method in brief: as §1

Setaria faberi (SETFA) [3] = test: Pre-emergence herbicidal glasshouse test; details: 250 g/ha, sprayed after one day cultivation, evaluated after 13 days
Method in brief: as §1

[4] = tested on: Amaranthus pa/meri (AMAPA); test: Pre-emergence herbicidal glasshouse test; details: 250 g/ha, sprayed after one day cultivation, evaluated after 13 days
Method in brief: as §1

[5] = tested on: Ipomoea hederacea (IPOHE); test: Pre-emergence herbicidal glasshouse test; details: 250 g/ha, sprayed after one day cultivation, evaluated after 13 days
Method in brief: as §1

[6] = tested on: Echinochloa crus-gali (ECHCG); test: Post-emergence herbicidal glasshouse test; details: 250 g/ha, sprayed after 8 days cultivation, evaluated after 13 days
Method in brief: as §1

[7] = tested on: Amaranthus retoflexus (AMARE); test: Post-emergence herbicidal glasshouse test; details: 250 g/ha, sprayed after 8 days cultivation, evaluated after 13 days
Method in brief: as §1

Setaria faberi (SETFA) [8] = test: Post-emergence herbicidal glasshouse test; details: 250 g/ha, sprayed after 8 days cultivation, evaluated after 13 days
Method in brief: as §1

[9] = tested on: Amaranthus pa/meri (AMAPA); test: Post-emergence herbicidal glasshouse test; details: 250 g/ha, sprayed after 8 days cultivation, evaluated after 13 days
Method in brief: as §1

[10] = tested on: Ipomoea hederacea (IPOHE); test: Post-emergence herbicidal glasshouse test; details: 250 g/ha, sprayed after 8 days cultivation, evaluated after 13 days
Method in brief: as §1

CC(O)CCc1nc(C(F)(F)F)cn1Cc1ncc(Cl)cn1 (centres unmarked) [Compound 1.082]
percentage damage caused to the plant, ECHCG [1]: 1 (1=0-20%) | percentage damage caused to the plant, AMARE [2]: 4 (4=61-80%) | percentage damage caused to the plant, SETFA (Setaria faberi (SETFA) [3]): 2 (2=21-40%) | percentage damage caused to the plant, AMAPA [4]: 2 (2=21-40%) | percentage damage caused to the plant, IPOHE [5]: 1 (1=0-20%) | percentage damage caused to the plant, ECHCG [6]: 1 (1=0-20%) | percentage damage caused to the plant, AMARE [7]: 2 (2=21-40%) | percentage damage caused to the plant, SETFA (Setaria faberi (SETFA) [8]): 1 (1=0-20%) | percentage damage caused to the plant, AMAPA [9]: 3 (3=41-60%) | percentage damage caused to the plant, IPOHE [10]: 1 (1=0-20%)

CSCCc1nc(C(F)(F)F)cn1Cc1ncc(Cl)cn1 [Compound 1.083]
percentage damage caused to the plant, ECHCG [1]: 1 (1=0-20%) | percentage damage caused to the plant, AMARE [2]: 4 (4=61-80%) | percentage damage caused to the plant, SETFA (Setaria faberi (SETFA) [3]): 1 (1=0-20%) | percentage damage caused to the plant, AMAPA [4]: 3 (3=41-60%) | percentage damage caused to the plant, IPOHE [5]: 5 (5=81-100%) | percentage damage caused to the plant, ECHCG [6]: 1 (1=0-20%) | percentage damage caused to the plant, AMARE [7]: 4 (4=61-80%) | percentage damage caused to the plant, SETFA (Setaria faberi (SETFA) [8]): 1 (1=0-20%) | percentage damage caused to the plant, AMAPA [9]: 3 (3=41-60%) | percentage damage caused to the plant, IPOHE [10]: 4 (4=61-80%)

C#Cc1nc(C(F)(F)F)cn1Cc1ncc(Cl)cn1 [Compound 1.084]
percentage damage caused to the plant, ECHCG [1]: 1 (1=0-20%) | percentage damage caused to the plant, AMARE [2]: 2 (2=21-40%) | percentage damage caused to the plant, SETFA (Setaria faberi (SETFA) [3]): 1 (1=0-20%) | percentage damage caused to the plant, AMAPA [4]: 1 (1=0-20%) | percentage damage caused to the plant, IPOHE [5]: 1 (1=0-20%) | percentage damage caused to the plant, ECHCG [6]: 1 (1=0-20%) | percentage damage caused to the plant, AMARE [7]: 2 (2=21-40%) | percentage damage caused to the plant, SETFA (Setaria faberi (SETFA) [8]): 1 (1=0-20%) | percentage damage caused to the plant, AMAPA [9]: 2 (2=21-40%) | percentage damage caused to the plant, IPOHE [10]: 1 (1=0-20%)

CC(F)(F)CCc1nc(C(F)(F)F)cn1Cc1ncc(Cl)cn1 [Compound 1.085]
percentage damage caused to the plant, ECHCG [1]: 5 (5=81-100%) | percentage damage caused to the plant, AMARE [2]: 5 (5=81-100%) | percentage damage caused to the plant, SETFA (Setaria faberi (SETFA) [3]): 5 (5=81-100%) | percentage damage caused to the plant, AMAPA [4]: 5 (5=81-100%) | percentage damage caused to the plant, IPOHE [5]: 5 (5=81-100%) | percentage damage caused to the plant, ECHCG [6]: 4 (4=61-80%) | percentage damage caused to the plant, AMARE [7]: 5 (5=81-100%) | percentage damage caused to the plant, SETFA (Setaria faberi (SETFA) [8]): 5 (5=81-100%) | percentage damage caused to the plant, AMAPA [9]: 5 (5=81-100%) | percentage damage caused to the plant, IPOHE [10]: 4 (4=61-80%)

CC(C)(O)CCc1nc(C(F)(F)F)cn1Cc1ncc(Cl)cn1 [Compound 1.086]
percentage damage caused to the plant, ECHCG [1]: 1 (1=0-20%) | percentage damage caused to the plant, AMARE [2]: 1 (1=0-20%) | percentage damage caused to the plant, SETFA (Setaria faberi (SETFA) [3]): 1 (1=0-20%) | percentage damage caused to the plant, AMAPA [4]: 1 (1=0-20%) | percentage damage caused to the plant, IPOHE [5]: 3 (3=41-60%) | percentage damage caused to the plant, ECHCG [6]: 1 (1=0-20%) | percentage damage caused to the plant, AMARE [7]: 2 (2=21-40%) | percentage damage caused to the plant, SETFA (Setaria faberi (SETFA) [8]): 1 (1=0-20%) | percentage damage caused to the plant, AMAPA [9]: 2 (2=21-40%) | percentage damage caused to the plant, IPOHE [10]: 3 (3=41-60%)
